# Reference: PubChem BioAssay (NCI)
# “And” between values parts separate entries of the source, which are not always exact repeats. Identical values can stand only once.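 A five-concentration, 48-hour dose response in 96-well plates underlies each endpoint, interpolated linearly between surrounding concentrations. Here, GI50 denotes the concentration required for 50% inhibition of growth. The concentration for full growth arrest is given as TGI.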
# Assays:
# Assay in all cases: NCI anticancer screen, dose series, 48 h
# SN12C renal = system: SN12C renal
# SK-MEL-2 melanoma = system: SK-MEL-2 melanoma
# SK-MEL-5 melanoma = system: SK-MEL-5 melanoma
# NCI-H522 lung = system: NCI-H522 lung
# SNB-19 CNS = system: SNB-19 CNS
# KM20L2 colon = system: KM20L2 colon
# HOP-62 NSCLC = system: HOP-62 NSCLC
# NCI-H226 lung = system: NCI-H226 lung
# DMS 114 small cell lung = system: DMS 114 small cell lung
# RXF 393 renal = system: RXF 393 renal
SMILES,TGI (SN12C renal),TGI (SK-MEL-2 melanoma),TGI (SK-MEL-5 melanoma),TGI (NCI-H522 lung) [µM],TGI (SNB-19 CNS),TGI (KM20L2 colon) [µM],TGI (HOP-62 NSCLC),TGI (NCI-H226 lung),TGI (DMS 114 small cell lung) [µM],TGI (RXF 393 renal) [µM],GI50 (SN12C renal) [µM],GI50 (SK-MEL-2 melanoma) [µM],GI50 (SK-MEL-5 melanoma),GI50 (NCI-H522 lung),GI50 (SNB-19 CNS) [µM],GI50 (KM20L2 colon) [µM],GI50 (HOP-62 NSCLC) [µM],GI50 (NCI-H226 lung) [µM],GI50 (RXF 393 renal) [µM]
O=C(CCc1cc(-c2ccc(F)cc2)n[nH]1)N(Cc1ccccc1)Cc1ccccc1,> 100 µM,> 100 µM,> 100 µM,> 100,> 100 µM,> 100,> 100 µM,> 100 µM,> 100,> 100,,,,,,,,,
COc1cc(CCc2ccncc2)cc(OC)c1OC,> 100 µM,,> 100 µM,> 100,> 100 µM,> 100,> 100 µM,> 100 µM,> 100,> 100,,,,,,,,,
O=C1C(=Cc2ccc(F)cc2)C(=O)c2ccccc21,,> 100 µM,> 100 µM,> 100,> 100 µM,> 100,> 100 µM,> 100 µM,> 100,,,,,,,,,,
Cc1c(Cl)cccc1NC(=O)C(=O)c1c(O)c2ccc(O)cc2oc1=O,> 100 µM,> 100 µM,> 100 µM,> 100,> 100 µM,> 100,> 100 µM,> 100 µM,> 100,> 100,,,,,,,,,
CC(=O)[O][Hg][c]1s[c]([Hg][O]C(C)=O)[c]([Hg][O]C(C)=O)[c]1[Hg][O]C(C)=O,> 100 µM,,3.12 µM,> 100,16.3 µM,37.3,16.5 µM,> 100 µM,,28.6,8.33,2.19,1.24 µM,2.54 µM,4.27,14.3,4.91,> 100,13.1
Oc1ccc(O)c(-n2cccn2)c1-n1cccn1,> 100 µM,> 100 µM,> 100 µM,73.1,> 100 µM,> 100,> 100 µM,,> 100,> 100,,,,,,,,,
C=CCO[C@H]1CC[C@@]2(C)C(CC[C@]3(C)C2CC=C2[C@@H]4[C@@H](C)C(C)CC[C@]4(C(=O)O)CCC23C)C1(C)C (stereo not given in full),27.1 µM,,31.8 µM,28.4,32.2 µM,33.2,41 µM,39.6 µM,32.1,22.8,,,,,,,,,
Cc1ccc(C)c(NC(=O)C(=O)Nn2c(=S)[nH]c3ccccc3c2=O)c1,> 100 µM,> 100 µM,> 100 µM,> 100,> 100 µM,> 100,> 100 µM,> 100 µM,> 100,> 100,,,,,,,,,
N#C/C(=C1\OC(N)=C(c2ccc(Cl)cc2)C1=O)c1ccc(Cl)cc1,23 µM,,,24.6,39.6 µM,33,33.4 µM,,29.3,25.4,,,,,,,,,
CC/C(C)=C1\CCC(CN(C)C)C1=O (stereo not given),38.3 µM,32.5 µM,91.5 µM,,> 100 µM,47.5,> 100 µM,> 100 µM,41.8,40.4,,,,,,,,,
CN1C/C(=C\c2ccc(C(=O)O)cc2)C(=O)/C(=C/c2ccc(C(=O)O)cc2)C1,> 100 µM,> 100 µM,> 100 µM,,,> 100,> 100 µM,> 100 µM,> 100,> 100,,,,,,,,,
O/N=C1\C(=C\c2ccc3c(c2)OCCO3)CCCC1C(NO)c1ccc2c(c1)OCCO2 (stereo not given),29.8 µM,,30.1 µM,29.6,> 100 µM,35.6,52.3 µM,,44.6,59.3,,,,,,,,,
C/C(=N\Nc1n[nH]c(=S)n1N)c1c(O)cc(C)oc1=O,> 100 µM,> 100 µM,,> 100,> 100 µM,> 100,> 100 µM,> 100 µM,,,,,,,,,,,
Cc1ccc([N+]2=NC(c3ccccc3)=NN(c3ccccc3)C2)cc1,> 100 µM,,73.6 µM,,> 100 µM,> 100,> 100 µM,> 100 µM,> 100,> 100,,,,,,,,,
N#CC(C#N)C(c1ccccc1)c1ccccc1,> 100 µM,> 100 µM,> 100 µM,> 100,> 100 µM,> 100,> 100 µM,> 100 µM,> 100,> 100,,,,,,,,,
O=C1CC2OCC=C3CN4CCC5(C(=O)O)C(N1)C2C3CC45 (stereo not given),> 100 µM,> 100 µM,> 100 µM,> 100,> 100 µM,,> 100 µM,> 100 µM,,> 100,,,,,,,,,
CC(CC(=O)Nc1ccc(NC(=O)CC(C)N=NC(N)=O)cc1)N=NC(N)=O (stereo not given),> 100 µM,> 100 µM,> 100 µM,> 100,> 100 µM,> 100,> 100 µM,> 100 µM,38.2,> 100,,,,,,,,,
COC1CC(n2cc(F)c(N)nc2=O)OC1CO (stereo not given),> 100 µM,> 100 µM,> 100 µM,> 100,> 100 µM,> 100,> 100 µM,> 100 µM,> 100,> 100,,,,,,,,,
Cc1c(C2CCSc3ccccc3N2)sc2ccccc12 (stereo not given),> 100 µM,> 100 µM,> 100 µM,> 100,> 100 µM,,> 100 µM,> 100 µM,,> 100,,,,,,,,,
COC(=O)Nc1nc2ccc(C(=O)c3cccs3)cc2[nH]1,32.9 µM and > 100 µM,12.1 µM and > 100 µM,6.43 µM and 2.06 µM,0.0606,42.5 µM and > 100 µM,0.0377,32.8 µM and > 100 µM,1.26 µM and 2.54 µM,> 100,1.36,0.729,20,0.0215 µM and 0.0666 µM,0.0139 µM and 0.107 µM,0.359,,1.11,0.275,
O=C(/C=C/c1ccc(Cl)cc1Cl)c1ccc(Cl)cc1Cl,24.8 µM,,36.4 µM,1.16,> 100 µM,,> 68.9 µM,40.8 µM,,36.3,,1.63,16.7 µM,,29,,26.1,19.9,16.7
NC1=Nc2ccccc2Sc2ccccc21,> 100 µM,> 100 µM,> 100 µM,> 100,> 100 µM,> 100,> 100 µM,> 100 µM,> 100,> 100,,,,,,,,,
